In ChEMBL document CHEMBL1130706, “Synthesis and structure-activity relationships of adenosine analogs as inhibitors of trypanosomal glyceraldehyde-3-phosphate dehydrogenase. Modifications at positions 5' and 8” (Bioorg Med Chem Lett, 1998):

Experiments:
[1] = Inhibition of Leishmania mexicana GAPDH(glyceraldehyde-3-phosphate dehydrogenase)
[2] = Compound was tested for the inhibition of Leishmania mexicana GAPDH(glyceraldehyde-3-phosphate dehydrogenase)

SMILES | Ki [1] | Ki [2]
O=C1c2ccccc2C(=O)N1C[C@H]1OC(n2cnc3c(NCc4ccccc4)ncnc32)[C@H](O)[C@@H]1O (some centres undefined) | 4000 µM | –
CC(C)Nc1nc2c(N)ncnc2n1C1O[C@H](CO)[C@@H](O)[C@H]1O (some centres undefined) | 1500 µM | –
Nc1ncnc2c1ncn2C1O[C@H](CNC(=O)c2ccccc2)[C@@H](O)[C@H]1O (some centres undefined) | 3300 µM | –
Nc1ncnc2c1ncn2[C@@H]1O[C@H](CO)[C@@H](O)[C@H]1O [ADENOSINE] | 2500 µM | –
OC[C@H]1O[C@@H](n2cnc3c(NCc4ccccc4)ncnc32)[C@H](O)[C@@H]1O [N6-BENZYLADENOSINE] | 2800 µM | –

Compounds with a lower Ki [1], results first:

Ki [1] | Ki [2] | SMILES
300 µM | – | Nc1ncnc2c1nc(-c1cccs1)n2[C@@H]1O[C@H](CO)[C@@H](O)[C@H]1O
800 µM | – | NC(=O)c1ccccc1C(=O)NC[C@H]1OC(n2cnc3c(NCc4ccccc4)ncnc32)[C@H](O)[C@@H]1O (some centres undefined)
9 µM | 18 µM | CC(C)=CCNc1ncnc2c1nc(-c1cccs1)n2C1O[C@H](CO)[C@@H](O)[C@H]1O (some centres undefined)
